Results published in PMC3712822 (Pharmacotherapy, 2011).
Where two headings read alike, the source gives them in different places. Each block holds one compound with its values, some of them ahead of it.

What was measured:
[1] = patients taking atorvastatin; cited from earlier work
CYP3A [2] = details: cited from earlier work
human myocytes = details: in vitro; cited from earlier work
[3] = for AUC(0-inf) / half-life / Tmax / Cmax: human, plasma, oral; for AUC(0-inf): AUC0–∞; for AUC(0-inf) / Tmax / Cmax: median (IQR); for half-life: harmonic mean ± SD; for Cmax: atorvastatin + clarithromycin 500 mg twice/day
CYP3A [4] = details: classification by the United States Food and Drug Administration; cited from earlier work
[5] = Plasma clarithromycin partial AUC in the atorvastatin plus clarithromycin phase; type: in vivo; details: human, oral, 500 mg, Partial AUC of clarithromycin (hrs 2–10), clarithromycin 500 mg twice/day, day 4, mean ± SD
[6] = 20 mg, CYP3A5 expressors (n=10), atorvastatin only
[7] = 20 mg, CYP3A5 nonexpressors (n=13), atorvastatin only
[8] = CYP3A5 expressors (n=10), atorvastatin + clarithromycin
[9] = CYP3A5 nonexpressors (n=13), atorvastatin + clarithromycin

Structure (SMILES): CC(C)c1c(C(=O)Nc2ccccc2)c(-c2ccccc2)c(-c2ccc(F)cc2)n1CC[C@@H](O)C[C@@H](O)CC(=O)O [atorvastatin acid, atorvastatin]
- Patients experiencing muscle-related adverse effects [1]: 3–8%

- AUC0–∞ higher in nonexpressors than in expressors ([3]; atorvastatin-only phase, p=0.038): 36%
- AUC(0-inf) [3, 6]: 0.0349 µg·h/mL
- AUC(0-inf) [3, 7]: 0.0476 µg·h/mL
- half-life [3, 6]: 10.9 ± 4.5 h
- half-life [3, 7]: 13.6 ± 5.2 h
- Tmax [3, 6]: 2 h
- Tmax [3, 7]: 1 h
- AUC(0-inf) [3, 8]: 0.11 µg·h/mL
- AUC(0-inf) [3, 9]: 0.127 µg·h/mL
- Cmax ([3]; CYP3A5 expressors (n=10)): 4.2 ng/mL
- Cmax ([3]; CYP3A5 nonexpressors (n=13)): 4.2 ng/mL
- half-life [3, 8]: 19.3 ± 5.4 h
- half-life [3, 9]: 19.2 ± 5.2 h
- Tmax [3, 8]: 5 h
Structure (SMILES): CC(C)c1c(C(=O)Nc2ccccc2)c(-c2ccccc2)c(-c2ccc(F)cc2)n1CC[C@@H]1C[C@@H](O)CC(=O)O1 [atorvastatin lactone]
- Affinity for CYP3A relative to atorvastatin acid (CYP3A [2]): higher affinity
- Toxicity to human myocytes relative to the acid form (human myocytes): more toxic

- AUC ([5]; CYP3A5 expressors): 17700 µg·h/mL
- AUC ([5]; CYP3A5 nonexpressors): 21900 µg·h/mL
Structure (SMILES): CC[C@H]1OC(=O)[C@H](C)[C@@H](O[C@H]2C[C@@](C)(OC)[C@@H](O)[C@H](C)O2)[C@H](C)[C@@H](O[C@@H]2O[C@H](C)C[C@H](N(C)C)[C@H]2O)[C@](C)(OC)C[C@@H](C)C(=O)[C@H](C)[C@@H](O)[C@]1(C)O [clarithromycin]
- CYP3A inhibitor classification (CYP3A [4]): strong CYP3A inhibitor
